This passage reports GI50 and TGI results from PubChem BioAssay (NCI).

Some test systems named below: 786-0 renal; A498 renal; ACHN renal; HS 578T breast; M14 melanoma; T-47D breast; U251 CNS; UO-31 renal.
Assay in all cases: DTP human tumour cell line panel, 48 h

Values joined by “and” are separate entries in the source; they are usually repeats but may differ in a detail not shown here. Identical values can stand only once.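 Five compound concentrations were applied to cells in 96-well plates for 48 hours; endpoints were derived by simple linear interpolation of the resulting dose-response curve. GI50 is the concentration that inhibits growth by half. TGI: concentration producing complete growth inhibition.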 Numbered stars: 1 amine (or outer) side, 2 acyl side, 3 side chain; on linkers, the order of the positions; unused ones are H or OH. Bridge positions count the residues as written; N and C are the ends. Square brackets hold non-standard residues; d marks the D form. Peptide text beside a SMILES is read from it. I, II: the chains in the order shown. Actinocin(1to9) = Cc1c2oc3c(C)ccc(C(=O)[*:2])c3nc-2c(C(=O)[*:1])c(N)c1=O; NMeY = CN[CH](Cc1ccc(O)cc1)C(=O)O; Sar = CNCC(=O)O

Take `N#CC1=C(N)NC(=O)NC12Nc1ccccc1N2`: the GI50 with 786-0 renal, in the experiment with A498 renal, in the experiment with ACHN renal, with HS 578T breast, with M14 melanoma and in the experiment on T-47D breast was > 100 µM in each case. Also, in the experiment on U251 CNS, the GI50 was > 100 µM. The TGI in the experiment on 786-0 renal, in the experiment with A498 renal, in the experiment with ACHN renal, with HS 578T breast, in the experiment with M14 melanoma and in the experiment on T-47D breast was > 100 µM in each case. The total growth inhibition concentration (TGI) in the experiment with U251 CNS was > 100 µM.

Consider `COc1ccc2[nH]c(C(=O)OCc3ccc4c(Cl)cc(Cl)c(O)c4n3)cc2c1`, for which the GI50 was 1.3 µM in the experiment with 786-0 renal; 1.91 µM in the experiment on A498 renal; 1.08 µM in the experiment with ACHN renal; 1.28 µM in the experiment with HS 578T breast; 1.44 µM in the experiment on M14 melanoma; 1.55 µM in the experiment with U251 CNS. Further, the GI50 in the experiment on UO-31 renal is 0.378 µM. For the same compound, the TGI with 786-0 renal was found to be 2.6 µM; in the experiment with A498 renal, 3.73 µM; in the experiment with ACHN renal, 2.26 µM; in the experiment on HS 578T breast it was 3.81 µM; in the experiment on M14 melanoma, 2.91 µM; in the experiment on U251 CNS, 2.94 µM. Besides, the TGI with UO-31 renal amounted to 1.96 µM.

With `CN(N)c1nc(N)c(C#N)c(C#N)c1C#N`, the TGI in the experiment with 786-0 renal, in the experiment on ACHN renal, in the experiment on HS 578T breast, in the experiment with M14 melanoma, in the experiment on T-47D breast and in the experiment with U251 CNS was > 10 µM throughout.

For `CC(C)(C)OC(=O)N[C@@H](Cc1ccccc1)C(=O)N(Cc1ccccc1)C1(C(=O)NCc2ccccc2)CCN(Cc2ccccc2)CC1`, the GI50 in the experiment on 786-0 renal was 2.99 µM; in the experiment with A498 renal, 1.43 µM; in the experiment with HS 578T breast, 4.22 µM; with M14 melanoma, 2.6 µM; in the experiment on T-47D breast, 2.89 µM; in the experiment on U251 CNS, 3.19 µM. In the experiment with UO-31 renal, the GI50 was 2.16 µM. The TGI was 43.3 µM in the experiment with 786-0 renal; 6.36 µM in the experiment with A498 renal; > 100 µM with HS 578T breast; 44.5 µM in the experiment on M14 melanoma; > 100 µM in the experiment on T-47D breast; > 100 µM in the experiment on U251 CNS. In addition, the total growth inhibition concentration (TGI) in the experiment on UO-31 renal was > 100 µM.

Turning to `COC(=O)N[C@H]1CCc2c(Cl)c(OC)c(OC)c(OC)c2-c2ccc(SC)c(=O)cc21`, the GI50 with 786-0 renal, with A498 renal, in the experiment on ACHN renal, in the experiment on HS 578T breast, in the experiment with M14 melanoma and in the experiment on U251 CNS was < 0.01 µM throughout. Further, in the experiment with UO-31 renal, the GI50 was < 0.0215 µM. Further, the TGI with 786-0 renal was > 36.9 µM; in the experiment with A498 renal it was < 0.01 µM; with ACHN renal it was 38.1 µM; in the experiment on HS 578T breast, > 100 µM; in the experiment on U251 CNS, > 40.5 µM; in the experiment on UO-31 renal, 51.7 µM.

For `CCCCn1c(=O)c(/C=C/C(=O)/C=C/c2cc3ccccc3n(CCCC)c2=O)cc2ccccc21`, the GI50 is 1.35 µM in the experiment on 786-0 renal; 1.7 µM with ACHN renal; 3.01 µM in the experiment on HS 578T breast; 2.28 µM in the experiment on T-47D breast; 1.03 µM in the experiment with U251 CNS; 1.53 µM with UO-31 renal. The TGI in the experiment on 786-0 renal turned out to be 3.08 µM; in the experiment on ACHN renal it was 3.07 µM; with HS 578T breast, 23.7 µM; with T-47D breast, 6.33 µM; with U251 CNS it was 2.24 µM; in the experiment on UO-31 renal it was 3.21 µM.

On to `COc1cc(/C=C2\CCCC3=C2N=C2SC(C)=NN2C3c2cc(OC)c(OC)c(OC)c2)cc(OC)c1OC` (stereo unspecified), for which the GI50 was > 100 µM in the experiment with 786-0 renal, 0.153 µM in the experiment on A498 renal, > 100 µM in the experiment with HS 578T breast and > 100 µM in the experiment on T-47D breast. Moreover, the TGI with 786-0 renal, in the experiment on A498 renal, in the experiment on HS 578T breast and in the experiment on T-47D breast was > 100 µM each time.

Consider `N#Cc1cccc(C2C3=C(COC3=O)N(CCO)c3cc4c(cc32)OCO4)c1` (stereo unspecified), for which the GI50 in the experiment on 786-0 renal was 2.04 µM; in the experiment on A498 renal it was 1.2 µM; in the experiment with ACHN renal it was 3.53 µM; with HS 578T breast, 1.3 µM; with M14 melanoma it was 0.806 µM; in the experiment on U251 CNS, 2.3 µM. Moreover, the GI50 with UO-31 renal is 2.63 µM. Besides, the TGI in the experiment on 786-0 renal was > 50 µM; with A498 renal it was 4.14 µM; in the experiment with ACHN renal it was > 50 µM; in the experiment on HS 578T breast it was 11.1 µM; in the experiment on M14 melanoma, > 50 µM; in the experiment with U251 CNS, > 50 µM. Further, in the experiment on UO-31 renal, the TGI was > 50 µM.

With `COc1ccc(CC2C(=O)OC(C)C(NC(=O)c3c4nc5c(C(=O)NC6C(=O)NC(C(C)C)C(=O)N7CCCC7C(=O)N(C)CC(=O)N(C)C(Cc7ccc(OC)cc7)C(=O)OC6C)ccc(C)c5oc-4c(C)c(=O)c3N)C(=O)NC(C(C)C)C(=O)N3CCCC3C(=O)N(C)CC(=O)N2C)cc1` (stereo unspecified) (I: TVP[Sar][NMeY](Me) / II: TVP[Sar][NMeY](Me); ester I:1-I:C, II:1-II:C; linker I:N-II:N via Actinocin(1to9); configuration not given here), the GI50 is < 0.0333 µM and 0.00694 µM in the experiment with 786-0 renal; < 0.01 µM and 0.00387 µM in the experiment on HS 578T breast; < 0.01 µM and 0.0665 µM in the experiment with M14 melanoma; 0.00189 µM in the experiment on U251 CNS. In addition, the total growth inhibition concentration (TGI) in the experiment on 786-0 renal is > 1 µM; in the experiment with ACHN renal, > 0.591 µM; with HS 578T breast it was < 0.01 µM and 0.0411 µM; in the experiment with U251 CNS, > 1 µM.

As to `CC(=O)[O-].N.N.N.N.[Co+3].[O-][Cl+3]([O-])([O-])[O-].[OH3+]`, the GI50 is > 100 µM in the experiment on 786-0 renal; > 100 µM in the experiment on A498 renal; > 100 µM with ACHN renal; > 100 µM with M14 melanoma; > 100 µM with U251 CNS; 84.6 µM in the experiment on UO-31 renal. For the same compound, the TGI in the experiment on 786-0 renal, in the experiment on A498 renal, in the experiment with ACHN renal, in the experiment on M14 melanoma, with U251 CNS and with UO-31 renal was > 100 µM throughout.

As to `C/C=C(\C)C(=O)OC1/C=C(\C)CC/C=C(\C)CC2OC(=O)C(C)(OC(C)=O)C12` (stereo unspecified), the TGI with 786-0 renal, in the experiment with A498 renal, in the experiment on ACHN renal, in the experiment on HS 578T breast, in the experiment on M14 melanoma and with T-47D breast was > 100 µM in each case. For the same compound, the TGI in the experiment on U251 CNS was > 100 µM.

For `CN1CCN(CCCOc2cc(O)c3c(=O)cc(-c4ccccc4)oc3c2)CC1`, the GI50 was 20.6 µM in the experiment on 786-0 renal; 22 µM in the experiment with A498 renal; 16 µM in the experiment with ACHN renal; 23 µM in the experiment on HS 578T breast; 28 µM in the experiment on T-47D breast; 15.1 µM in the experiment on U251 CNS. Also, the GI50 in the experiment on UO-31 renal was 16.9 µM. In addition, the TGI in the experiment on 786-0 renal is 43.3 µM; in the experiment with A498 renal, 43.4 µM; in the experiment with ACHN renal, 29.4 µM; with HS 578T breast it was 52.9 µM; with T-47D breast, 79.2 µM; in the experiment with U251 CNS it was 29 µM. This compound returned a TGI with UO-31 renal of 47.3 µM.

By GI50 is commonly meant the concentration that inhibits growth by half. Usually TGI stands for the concentration giving total growth inhibition. Low readings indicate greater sensitivity of the cells, high ones lower sensitivity of the cells.
